Format in all cases: biochemical
For experiment [1], the target named is T1, human Aurora-C (Homo sapiens, UniProt Q9UQB9).
T1 construct: GST; made in house; host or cells: transiently transfected HEK293 cells
T1 sequence (Q9UQB9 1-309): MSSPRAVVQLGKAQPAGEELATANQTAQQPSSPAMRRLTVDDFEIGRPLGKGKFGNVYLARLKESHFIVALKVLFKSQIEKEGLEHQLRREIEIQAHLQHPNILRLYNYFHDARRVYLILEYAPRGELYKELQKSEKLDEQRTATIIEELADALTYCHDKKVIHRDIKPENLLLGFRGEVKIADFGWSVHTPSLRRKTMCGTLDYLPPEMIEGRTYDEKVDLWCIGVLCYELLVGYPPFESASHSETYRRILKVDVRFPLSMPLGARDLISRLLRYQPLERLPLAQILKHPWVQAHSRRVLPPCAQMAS
Nature of the experiment: Aurora-C kinase assay (HTRF). The note with it: 10 μM ATP. Here is the method: The Aurora-C inhibitory activity of the substances of this invention was measured in the Aurora-C-HTRF assay (HTRF=Homogeneous Time Resolved Fluorescence) described in the following paragraphs.
Recombinant fusion protein of GST and human Aurora-C was expressed in transiently transfected HEK293 cells and purified by affinity chromatography on glutathione-Sepharose. The substrate used for the kinase reaction was the biotinylated peptide biotin-Ttds-FMRLRRLSTKYRT (C terminus in amide form) which can be purchased for example from JERINI Peptide Technologies (Berlin). Aurora-C was incubated in the presence of various concentrations of test substances in 5 μL of assay buffer [25 mM Hepes/NaOH pH 7.4, 0.5 mM MnCl2, 2.0 mM dithiothreitol, 0.1 mM sodium orthovanadate, 10 μM adenosine triphosphate (ATP), […] substrate, 0.01% (v/v) TritonX-100 (Sigma), 0.05% (w/v) bovine serum albumin (BSA), 1% (v/v) dimethyl sulphoxide] at 22° C. for 60 min. The concentration of Aurora-C was adapted to the particular activity of the enzyme and adjusted so that the assay operated in the linear range. Typical concentrations were in the region of 0.3 nM. The reaction was stopped by adding 5 μl of a solution of HTRF detection reagents (0.2 μM streptavidin-XLent and 1.4 nM anti-phospho-(Ser/Thr)-Akt substrate-Eu-cryptate (Cis biointernational, France, product No. 61P02KAE), a Europium-cryptate-labelled phospho-(Ser/Thr)-Akt substrate antibody [product #9611B, Cell Signaling Technology, Danvers, Mass., USA]) in aqueous EDTA solution (40 mM EDTA, 400 mM KF, 0.05% (w/v) bovine serum albumin (BSA) in 25 mM HEPES/NaOH pH 7.0).
The resulting mixture was incubated at 22° C. for 1 h in order to allow formation of a complex of the biotinylated phosphorylated substrate and the detection reagents. The amount of phosphorylated substrate was then estimated by measuring the resonance energy transfer from the anti-phospho-(Ser/Thr)-Akt substrate-Eu cryptate to the streptavidin-XLent. For this purpose, the fluorescence emissions at 620 nm and 665 nm after excitation at 350 nm were measured in an HTRF measuring instrument, e.g. a Rubystar (BMG Labtechnologies, Offenburg, Germany) or a Viewlux (Perkin-Elmer). The ratio of the emissions at 665 nm and at 622 nm was taken as a measure of the amount of phosphorylated substrate. The data were normalized (enzymic reaction without inhibitor=0% inhibition, all other assay components but no enzyme=100% inhibition) and IC50 values were calculated with a 4-parameter fit using an inhouse software.
On the technique in general: In TR-FRET formats the signal depends on donor and acceptor labels being close together.

In experiment [2] the target is T2, CDK1/CycB (Homo sapiens, UniProt P06493).
T2 construct: GST; purchased ProQinase GmbH, Freiburg; host or cells: baculovirus-infected insect cells (Sf9)
T2 sequence (P06493 whole entry): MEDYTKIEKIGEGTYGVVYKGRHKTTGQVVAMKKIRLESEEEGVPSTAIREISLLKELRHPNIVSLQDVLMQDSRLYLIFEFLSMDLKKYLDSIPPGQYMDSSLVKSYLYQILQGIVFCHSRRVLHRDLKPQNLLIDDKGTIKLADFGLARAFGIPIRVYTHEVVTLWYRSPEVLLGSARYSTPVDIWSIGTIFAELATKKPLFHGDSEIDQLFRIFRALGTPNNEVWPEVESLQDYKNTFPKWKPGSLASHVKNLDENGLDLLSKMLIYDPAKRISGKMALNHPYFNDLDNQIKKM
T2 sequence (P14635 whole entry partner): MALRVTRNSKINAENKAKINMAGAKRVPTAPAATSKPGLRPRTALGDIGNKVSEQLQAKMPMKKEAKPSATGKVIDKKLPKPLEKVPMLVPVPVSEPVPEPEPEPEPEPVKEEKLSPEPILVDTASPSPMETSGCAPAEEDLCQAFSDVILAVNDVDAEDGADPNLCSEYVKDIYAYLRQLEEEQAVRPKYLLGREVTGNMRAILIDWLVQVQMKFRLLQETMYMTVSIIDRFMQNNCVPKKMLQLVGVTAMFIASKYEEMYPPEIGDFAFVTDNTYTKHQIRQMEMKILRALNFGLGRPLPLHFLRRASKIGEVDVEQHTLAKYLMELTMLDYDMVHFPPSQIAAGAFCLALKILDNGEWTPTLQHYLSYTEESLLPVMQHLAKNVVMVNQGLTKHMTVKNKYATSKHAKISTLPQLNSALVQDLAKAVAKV
Nature of the experiment: CDK1/CycB kinase assay. The following applies: 0.5 μM ATP. Here is the method: Recombinant CDK1- and CycB-GST fusion proteins, purified from baculovirus-infected insect cells (Sf9), were purchased from ProQinase GmbH, Freiburg. The histone IIIS used as kinase substrate can be purchased from Sigma.
CDK1/CycB (5 ng/μL) was incubated in the presence of various concentrations of test substances (0 μM, and within the range 0.01-100 μM) in 40 μL of assay buffer [50 mM Tris/HCl pH 8.0, 10 mM MgCl2, 0.1 mM Na ortho-vanadate, 1.0 mM dithiothreitol, 0.025% PEG 20000, 0.5 μM ATP, 10 μM histone IIIS, 0.2 μCi/measurement point ^33P-gamma ATP, 0.05% NP40, 1.25% dimethyl sulphoxide] at 22° C. for 10 min. The reaction was stopped by adding EDTA solution (250 mM, pH 8.0, 15 μl/measurement point). 15 μl of each reaction mixture were loaded onto P30 filter strips (from Wallac), and non-incorporated ^33P-ATP was removed by washing the filter strips three times in 0.5% strength phosphoric acid for 10 min each time. After the filter strips had been dried at 70° C. for 1 hour, the filter strips were covered with scintillator strips (MeltiLex™ A, from Wallac) and baked at 90° C. for 1 hour. The amount of incorporated ^33P (substrate phosphorylation) was determined by scintillation measurement in a gamma radiation counter (Wallac).
(§1) The measured data were normalized to 0% inhibition (enzyme reaction without inhibitor) and 100% inhibition (all assay components except enzyme). The IC50 values were determined by means of a 4-parameter fit using the company's own software.

In experiment [3] the target is T3, CDK2/CycE (Homo sapiens, UniProt P24941).
T3 construct: GST; purchased ProQinase GmbH, Freiburg; host or cells: baculovirus-infected insect cells (Sf9)
Nature of the experiment: CDK2/CycE kinase assay. The note with it: 0.5 μM ATP. The procedure: Recombinant CDK2- and CycE-GST fusion proteins, purified from baculovirus-infected insect cells (Sf9), were purchased from ProQinase GmbH, Freiburg. The histone IIIS used as kinase substrate was purchased from Sigma. CDK2/CycE (1.25 ng/μL) was incubated in the presence of various concentrations of test substances (0 μM, and within the range 0.01-100 μM) in 40 μL of assay buffer [50 mM Tris/HCl pH 8.0, 10 mM MgCl2, 0.1 mM Na ortho-vanadate, 1.0 mM dithiothreitol, 0.5 μM ATP, 0.2% PEG20000, 10 μM histone IIIS, 0.2 μCi/measurement point ^33P-gamma ATP, 0.05% NP40, 1.25% dimethyl sulphoxide] at 22° C. for 10 min. The reaction was stopped by adding EDTA solution (250 mM, pH 8.0, 15 μl/measurement point).
15 μl of each reaction mixture were loaded onto P30 filter strips (from Wallac), and non-incorporated ^33P-ATP was removed by washing the filter strips three times in 0.5% strength phosphoric acid for 10 min each time.
After the filter strips had been dried at 70° C. for 1 hour, the filter strips were covered with scintillator strips (MeltiLex™ A, from Wallac) and baked at 90° C. for 1 hour. The amount of incorporated ^33P (substrate phosphorylation) was determined by scintillation measurement in a gamma radiation counter (Wallac).
as §1

A word on the IC50: it is the midpoint of a concentration-inhibition curve. On to `C[C@@H](Nc1nc(Nc2cccc(NC(=O)N=S(C)(C)=O)c2)ncc1Br)C(C)(C)O` [Example 1, N-({3-[(5-Bromo-4-{[(R)-2-hydroxy-1,2-dimethylpropyl]amino}pyrimidin-2-yl)amino]phenyl}carbamoyl)-S,S-dimethylsulphoximide], for which the figures for the IC50 in experiment [1], in experiment [2] and in experiment [3] were 160 nM, 24 nM and 9 nM, respectively.
`C[C@@H](Nc1nc(Nc2ccc(NC(=O)N=S(C)(C)=O)cc2)ncc1Br)C(C)(C)O` [Example 2, N-({4-[(5-Bromo-4-{[(R)-2-hydroxy-1,2-dimethylpropyl]amino}pyrimidin-2-yl)-amino]phenyl}carbamoyl)-S,S-dimethylsulphoximide]: the IC50 in experiment [1] worked out at 400 nM; in experiment [2] it was 21 nM; in experiment [3] it was 10 nM.
For the molecule `C[C@@H](O)[C@@H](C)Nc1nc(Nc2ccc(NC(=O)N=S(C)(C)=O)cc2)ncc1Br` [Example 3, N-({4-[(5-Bromo-4-{[(1R,2R)-2-hydroxy-1-methylpropyl]amino}pyrimidin-2-yl)amino]phenyl}carbamoyl)-S,S-dimethylsulphoximide], the half-inhibitory concentration (IC50) in experiment [1] was 280 nM; in experiment [2], 7 nM; in experiment [3], 5 nM.
On the same counts, the results for `C[C@@H](O)[C@@H](C)Oc1nc(Nc2ccc(NC(=O)N=S(C)(C)=O)cc2)ncc1Br` [Example 4, N-({4-[(5-Bromo-4-{[(1R,2R)-2-hydroxy-1-methylpropyl]oxy}pyrimidin-2-yl)amino]phenyl}carbamoyl)-S,S-dimethylsulphoximide] are 420 nM, 5 nM and 5 nM.
For the molecule `C[C@@H](O)[C@@H](C)Nc1nc(Nc2cccc(NC(=O)N=S(C)(C)=O)c2)ncc1Br` [Example 5, N-({3-[(5-Bromo-4-{[(1R,2R)-2-hydroxy-1-methylpropyl]amino}pyrimidin-2-yl)amino]phenyl}carbamoyl)-S,S-dimethylsulphoximide], the IC50 came to 54 nM in experiment [1], 10 nM in experiment [2] and 5 nM in experiment [3].
Take `C[C@@H](O)[C@@H](C)Oc1nc(Nc2cccc(NC(=O)N=S(C)(C)=O)c2)ncc1Br` [Example 6, N-({3-[(5-Bromo-4-{[(1R,2R)-2-hydroxy-1-methylpropyl]oxy}pyrimidin-2-yl)amino]phenyl}carbamoyl)-S,S-dimethylsulphoximide]: the 50% inhibitory concentration (IC50) turned out to be 73 nM in experiment [1], 7 nM in experiment [2] and 7 nM in experiment [3].
With `C[C@@H](O)[C@@H](C)Nc1nc(Nc2ccc(F)c(NC(=O)N=S(C)(C)=O)c2)ncc1Br` [Example 7, N-({5-[(5-Bromo-4-{[(1R,2R)-2-hydroxy-1-methylpropyl]amino}pyrimidin-2-yl)amino]-2-fluorophenyl}carbamoyl)-S,S-dimethylsulphoximide], the results for the concentration for half-maximal inhibition (IC50) in experiment [1], in experiment [2] and in experiment [3] were 370 nM, 10 nM and 3 nM, respectively.
On to `Cc1ccc(Nc2ncc(Br)c(N[C@H](C)[C@@H](C)O)n2)cc1NC(=O)N=S(C)(C)=O` [Example 8, N-({5-[(5-Bromo-4-{[(1R,2R)-2-hydroxy-1-methylpropyl]amino}pyrimidin-2-yl)amino]-2-methylphenyl}carbamoyl)-S,S-dimethylsulphoximide], for which the IC50 in experiment [1] is 810 nM; in experiment [2], 21 nM; in experiment [3], 12 nM.
Regarding `COc1ccc(Nc2ncc(Br)c(N[C@H](C)[C@@H](C)O)n2)cc1NC(=O)N=S(C)(C)=O` [Example 10, N-({5-[(5-Bromo-4-{[(1R,2R)-2-hydroxy-1-methylpropyl]amino}pyrimidin-2-yl)amino]-2-methoxyphenyl}carbamoyl)-S,S-dimethylsulphoximide], the half-maximal inhibitory concentration (IC50) in experiment [1] was found to be 410 nM; in experiment [2], 26 nM; in experiment [3] it was 20 nM.
Consider `COc1cc(Nc2ncc(Br)c(N[C@H](C)[C@@H](C)O)n2)ccc1NC(=O)N=S(C)(C)=O` [Example 11, N-({4-[(5-Bromo-4{[(1R,2R)-2-hydroxy-1-methylpropyl]amino}pyrimidin-2-yl)amino]-2-methoxyphenyl}carbamoyl)-S,S-dimethylsulphoximide], for which the IC50 in experiment [1] was found to be 430 nM; in experiment [2], 46 nM; in experiment [3], 19 nM.
Take `C[C@@H](O)[C@@H](C)Nc1nc(Nc2ccc(Cl)c(NC(=O)N=S(C)(C)=O)c2)ncc1Br` [Example 12, N-({5-[(5-Bromo-4-{[(1R,2R)-2-hydroxy-1-methylpropyl]amino}pyrimidin-2-yl)amino]-2-chlorophenyl}carbamoyl)-S,S-dimethylsulphoximide]: the half-maximal inhibitory concentration (IC50) was determined as 1300 nM in experiment [1], 18 nM in experiment [2] and 9 nM in experiment [3].
On to `C[C@@H](O)[C@@H](C)Nc1nc(Nc2ccc(NC(=O)N=S(C)(C)=O)cc2)ncc1C(F)(F)F` [Example 15], for which the values for the IC50 in experiment [1], in experiment [2] and in experiment [3] were 150 nM, 15 nM and 9 nM, respectively.
For `CS(C)(=O)=NC(=O)Nc1ccc(Nc2ncc(Br)c(Nc3ccc4[nH]cnc4c3)n2)cc1` [Example 16, N-[(4-{[4-(1H-Benzimidazol-5-ylamino)-5-bromopyrimidin-2-yl]amino}phenyl)-carbamoyl]-S,S-dimethylsulphoximide], the half-inhibitory concentration (IC50) in experiment [1] was 400 nM; in experiment [2], 140 nM; in experiment [3], 330 nM.
Take `C[C@@H](O)[C@@H](C)Nc1nc(Nc2cccc(C(=O)N=S(C)(C)=O)c2)ncc1Br` [Example 17, N-{3-[(5-Bromo-4-{[(1R,2R)-2-hydroxy-1-methylpropyl]amino}pyrimidin-2-yl)amino]benzoyl}-S,S-dimethylsulphoximide]: the results for the half-maximal inhibitory concentration (IC50) in experiment [1], in experiment [2] and in experiment [3] were 2000 nM, 10 nM and 9 nM, respectively.
